As usually defined, the EC50 is the concentration at which the effect is half-maximal. One may read the EC90 as the concentration needed for an effect of 90%. The term AUC(0-t) denotes exposure summed from dosing to a finite time, without extrapolation to infinity. High values mean more exposure, low ones less exposure. In general, bioavailability refers to the share of a dose that reaches the circulation, judged against a reference dose that is usually intravenous. Lower therefore signals poor availability. The term CC50 denotes the concentration at which the toxic effect on the cells reaches its halfway point. Usually Kp stands for the ratio of the level in a tissue or fluid to that in plasma or blood.

Here are results for 1 compound from ChEMBL document CHEMBL6127124, “Structure-Activity Relationships and Discovery of (S)-5-(tert-Butyl)-11-(difluoromethoxy)-9-methoxy-2-oxo-1,2,5,6-tetrahydropyrido[2',1':2,3]imidazo[4,5-h]quinoline-3-carboxylic Acid (AB-161), a Novel Orally Available and Liver-Centric HBV RNA Destabilizer” (J Med Chem, 2024).

For data set [1], the system named is Hepatitis B virus. The data set is described as follows: Antiviral activity against HBV infected in human HepG2.2.15 cells assessed as reduction in HBsAg level incubated for 6 days with media and compound replenishment on third day by CLIA. The following applies: HepG2.2.15, 144 h. Format: functional, organism-based.
Data set [2] in a line: AUC (0 to 24 hrs) in CD-1 mouse at 10 mg/kg, po measured for 24 hrs by LC-MS/MS analysis. The following applies: in vivo. Type of data set: ADME, organism-based.
The nature of data set [3]: Chemical stability of compound in PBS assessed as compound remaining measured after 6 days by HPLC UV analysis. Format: physicochemical. The note with it: buffer, 144 h; time 6 day.
Data set [4] is described as follows: Ratio of total drug concentration in liver to plasma in Sprague-Dawley rat at 5 mg/kg, po measured for 24 hrs by LC-MS/MS analysis. Format: ADME, organism-based. The note with it: other tissue.
Data set [5] can be described thus: Oral bioavailability in Sprague-Dawley rat at 5 mg/kg measured for 24 hrs by LC-MS/MS analysis. Format: ADME, organism-based. The following applies: in vivo.
In data set [6] the test system is Hepatitis B virus. Put plainly: Antiviral activity against HBV genotype D in immuno-competent C57BL/6 mouse model of chronic HBV assessed as log10 reduction in HBsAg production at 10 mg/kg, po qd for 7 days measured 24 hrs post-last dose by EIA relative to control. Format: functional. The note with it: time 8 day.
Data set [7] is described as follows: Metabolic stability in CD-1 mouse liver microsomes assessed as clearance at 0.3 uM preincubated for 5 mins followed by NADPH addition measured upto 60 mins by LC-MS/MS analysis. Type of data set: ADME, Microsome. The note with it: time < 65 min, read-out: CLH.
Data set [8] can be described thus: Selectivity ratio of drug concentration in liver in Sprague-Dawley rat at 5 mg/kg, po measured for 24 hrs to EC90 for antiviral activity against HBV infected in human HepG2.2.15 cells assessed as reduction in HBsAg level. Format: ADME, organism-based. The note with it: in vivo.
The test system of data set [9] is Hepatitis B virus. The data set is described as follows: Antiviral activity against HBV genotype D in immuno-competent C57BL/6 mouse model of chronic HBV assessed as log10 reduction in HBsAg production at 3 mg/kg, po qd for 7 days measured 24 hrs post-last dose by EIA relative to control. Type of data set: functional. The following applies: time 8 day.
Data set [10] in a line: Cytotoxicity in human HepG2.2.15 cells by Cell Titer-Glo assay. Format: toxicity, cell-based, HepG2 2.2.15. A general note: In ATP-based viability assays light output follows the ATP content of the culture.
Data set [11] in a line: Oral bioavailability in CD-1 mouse at 10 mg/kg measured for 24 hrs by LC-MS/MS analysis. Type of data set: ADME, organism-based. The note with it: in vivo.
A short description of data set [12]: Selectivity ratio of drug concentration in liver in CD-1 mouse at 10 mg/kg, po measured for 24 hrs to EC90 for antiviral activity against HBV infected in human HepG2.2.15 cells assessed as reduction in HBsAg level. Type of data set: ADME, organism-based. The note with it: in vivo.
A short description of data set [13]: Metabolic stability in human liver microsomes assessed as clearance at 0.3 uM preincubated for 5 mins followed by NADPH addition measured upto 60 mins by LC-MS/MS analysis. Format: ADME, Microsome. The note with it: time < 65 min, read-out: CLH. In general terms: Liver microsomes are vesicles of endoplasmic reticulum, rich in cytochrome P450 enzymes.
Data set [14] is described as follows: AUC (0 to 24 hrs) in Sprague-Dawley rat at 5 mg/kg, po measured for 24 hrs by LC-MS/MS analysis. The note with it: in vivo. Type of data set: ADME, organism-based.
Data set [15] can be described thus: Metabolic stability in Sprague-Dawley rat liver microsomes assessed as clearance at 0.3 uM preincubated for 5 mins followed by NADPH addition measured upto 60 mins by LC-MS/MS analysis. Format: ADME, Microsome. The note with it: time < 65 min, read-out: CLH.
Data set [16] is described as follows: Ratio of total drug concentration in liver to plasma in CD-1 mouse at 10 mg/kg, po measured for 24 hrs by LC-MS/MS analysis. Type of data set: ADME, organism-based. The following applies: CD-1, mouse, liver and plasma.

As for `CC(C)(C)[C@@H]1Cc2c(nc3c(OC(F)F)cccn23)-c2[nH]c(=O)c(C(=O)O)c(O)c21`, the EC50 in the data set on Hepatitis B virus [1] was determined as 1.5 nM. Besides, the EC90 with Hepatitis B virus [1] (time 6 day) was 14 nM. For the same compound, the area under the curve AUC(0-t) at 24 h in data set [2] is 989 ng·h/mL; in data set [14] it was 209 ng·h/mL. For the same compound, the Stability result in [3] is listed as “Unstable”. The Ratio in data set [4] is listed as 4397; in data set [8], 1008; in data set [12], 92. Also, the bioavailability came out at 16% in [5] and 27% in data set [11]. Further, the entries for the “log(activity)” value with Hepatitis B virus [6] and in the data set with Hepatitis B virus [9] were 0.52 and 0.32, respectively. Further, the microsomal CLint at 0.3 µM worked out at 64 µL/min/mg in [7], 6 µL/min/mg in data set [13] and 279 µL/min/mg in data set [15]. In addition, half-maximal cytotoxicity in data set [10] (CC50) was put at 36000 nM. Further, in data set [16], the Kp at 24 h worked out at 308.
